Laboratory results as given in paper PMC3983056 (PLoS Pathogens, 2014).
Several values for one entry are separate records, joined by “and”; a condition that tells them apart may be missing. Equal entries are not always repeated. Where two headings read alike, the source gives them in different places.

How the values were obtained:
[1] = system: HIV expressing a luciferase reporter gene (NL4-3-Luc) in latently infected primary CD4 T cells; assay: microbe, parasite or virus in culture; type: cell-based; settings: continuous 48 hours, cells from three healthy donors, mean ± SD
Description: To assess clinically tested HDACi for their ability to activate HIV from latency, we first employed a previously described in vitro HIV latency model, [30] with several modifications to increase the sensitivity of detection. The assay involves freshly isolated naïve CD4 T cells from healthy donors polarized to a Th0 phenotype, which mimics memory CD4 T cells. These Th0 cells are then infected with HIV expressing a luciferase reporter gene and cultured for an additional 7 to 10 days until a latent infection is established.
Total peripheral blood mononuclear cells (PBMCs) were obtained from healthy HIV-negative donors by leukapheresis (AllCells, Inc, Emeryville, CA). […] Purified naive CD4+ T cells were activated by incubation with anti-CD3/CD28 magnetic Dynabeads (1 bead: 2 cells ratio, Life Technologies), 1 µg/ml anti-IL-4 (R&D Systems, Minneapolis, MN), 2 µg/ml anti-IL-12p70 antibodies (R&D Systems), and 10 ng/ml TGF-β (R&D Systems) for 3 days, [59]. Following the removal of anti-CD3/CD28 beads and antibodies, cells were maintained in 30 U/ml IL-2 (Life Technologies) for 2 days. Cells were then infected with NL4.3-Luc in the presence of 50 µg/ml DEAE for 3 hours. Cells were maintained in the continued presence of 30 U/ml IL-2 throughout the infection and subsequent rest period with culture medium with fresh IL-2 replaced every 2–3 days. Seven days post-infection, 20 µl of latently infected cells were dispensed into 384 well plates using a MicroFlo dispenser (Biotek Insturments, VT) at 10,000 cells/well containing 100 nl of compound solutions delivered by the Echo acoustic-based liquid dispenser (Labcyte, Sunnyvale, CA). After a 48-hour incubation, 16 µl/well BriteGlo (Promega, Madison, WI) was added and luminescence measured using the Envision plate reader (Perkin Elmer, Waltham, MA). Compound-associated cytotoxicity was determined in latently infected cells in parallel with the virus activation assay. Cells were incubated with compounds for 48 hours at 37°C, and cell viability was determined using Cell Titer Glo reagent (Promega).

[2] = Compound-associated cytotoxicity in latently infected cells (Cell Titer Glo); type: cell-based, human; settings: human, latently infected (NL4.3-Luc) primary CD4+ T cells, continuous 48 hours, 50% cell viability reduction, three donors, mean ± SD
Method: Total peripheral blood mononuclear cells (PBMCs) were obtained from healthy HIV-negative donors by leukapheresis (AllCells, Inc, Emeryville, CA). Naive CD4+ T cells were purified by negative selection using EasySep magnetic beads (StemCells, Inc, Vancouver, Canada) and cultured in RPMI with 10% fetal bovine serum (FBS), penicillin/streptomycin, 1% nonessential amino acids (Life Technologies, Carlsbad, CA), 1% sodium pyruvate (Life Technologies) and 495 nM beta-mercaptoethanol (Sigma Aldrich, St. Louis, MO) in a 37°C, 5% CO2 incubator. Purified naive CD4+ T cells were activated by incubation with anti-CD3/CD28 magnetic Dynabeads (1 bead: 2 cells ratio, Life Technologies), 1 µg/ml anti-IL-4 (R&D Systems, Minneapolis, MN), 2 µg/ml anti-IL-12p70 antibodies (R&D Systems), and 10 ng/ml TGF-β (R&D Systems) for 3 days, [59]. Following the removal of anti-CD3/CD28 beads and antibodies, cells were maintained in 30 U/ml IL-2 (Life Technologies) for 2 days. Cells were then infected with NL4.3-Luc in the presence of 50 µg/ml DEAE for 3 hours. Cells were maintained in the continued presence of 30 U/ml IL-2 throughout the infection and subsequent rest period with culture medium with fresh IL-2 replaced every 2–3 days. Seven days post-infection, 20 µl of latently infected cells were dispensed into 384 well plates using a MicroFlo dispenser (Biotek Insturments, VT) at 10,000 cells/well containing 100 nl of compound solutions delivered by the Echo acoustic-based liquid dispenser (Labcyte, Sunnyvale, CA). After a 48-hour incubation, 16 µl/well BriteGlo (Promega, Madison, WI) was added and luminescence measured using the Envision plate reader (Perkin Elmer, Waltham, MA). Compound-associated cytotoxicity was determined in latently infected cells in parallel with the virus activation assay. Cells were incubated with compounds for 48 hours at 37°C, and cell viability was determined using Cell Titer Glo reagent (Promega).

[3] = system: memory CD4 cells from HIV-infected patients; assay: Viability of primary memory CD4 cells (Cell TiterGlo, 6 days); type: cell-based, human; settings: same incubation period (6 days), data not shown
Method: Cell viability was determined using a Cell TiterGlo reagent 6 days after the initiation of treatment and is expressed as a percentage of cell viability relative to control vehicle-treated memory CD4 cells from the same donors. The data represent mean +/− S.D. from three independent donors. (TIF) Click here for additional data file.

[4] = system: latent HIV in memory CD4 T cells from HIV-infected patients on suppressive cART
Description: We used HIV RNA in cell culture supernatants as a surrogate marker for virion release from treated cells. We assumed that extracellular virions would accumulate over the course of several days; therefore, the duration of culture was extended to 6 days to maximize assay sensitivity.
(§3) HIV-infected patients participating in the study were selected based on sustained plasma viral load suppression (<50 copies/ml for >12 months), CD4 counts (>350 cells/µL), and absence of co-infection with hepatitis B or C virus (Supplementary Table S1). Clinical laboratory results were reconfirmed 2 weeks before leukapheresis or blood draw. Leukapheresis was conducted for 3–4 hours, and samples were processed within 2 hours after collection. The leukapheresis product was diluted 1∶1 with PBS and layered over Ficoll for isolation of PBMCs. […] Resting CD4 T cells were isolated by first enriching total CD4 T cells (StemCell Technologies) and subsequently depleting HLA-DR-, CD25-, and CD69-positive cells via negative selection (Miltenyi Biotec, Auburn, CA).
(§4) To assess HIV activation by HDACi, up to 5 million CD4 T cells were plated in 24-well plates in 2.5 ml of media, supplemented with antiretrovirals (ARVs) (100 nM elvitegravir and 100–300 nM efavirenz) for the entire duration of culture incubation. HDACi were added at specified concentrations on day 0 and cells or culture supernatants were harvested for the analysis of HIV RNA at the indicated time points (6–48 hours or 6–7 days, respectively). For HDACi pulse treatment, cultures were washed twice using ARV-containing media at 4 or 24 hours after addition of HDACi and incubated with ARVs until harvest. To measure HIV RNA levels, 1 ml of culture supernatant was analyzed by a robotic COBAS AmpliPrep/TaqMan system (Roche Diagnostics, Indianapolis, IN), which extracts total nucleic acid and quantifies HIV RNA in copies per milliliter using the HIV-1 Test, v2.0 kit (Roche Diagnostics). For the measurement of cell-associated HIV RNA levels, cells were washed with PBS, counted, and lysed (Qiagen RLT buffer, 400 µl for every 2 million cells; Qiagen, Venlo, Netherlands). Lysates were filtered through a Qiashredder (Qiagen). Total RNA was prepared from the lysates (400 µl) using a robotic system (QIAsymphony, Qiagen) that incorporates a DNase I digestion step to eliminate cellular DNA. The resulting total RNA was eluted with 200 µl of buffer, diluted to 1 ml with nuclease-free water, and analyzed by COBAS using the HIV-1 Test v2.0 kit. Preparations of both cell-associated RNA and supernatant total nucleic acids were tested for potential contamination with HIV DNA and/or host DNA by performing the PCR amplification in the presence and absence of reverse transcriptase and by a detection of GAPDH-encoding host DNA sequence.
(§5) HIV RNA-induction experiments were conducted using 5 to 6 replicates for every experimental condition, including vehicle-treated controls. Fold induction in HIV RNA levels was calculated as a ratio of mean signals from compound-treated and vehicle (DMSO)-treated control samples from the same donor under identical conditions. […] For experiments using blood-derived resting CD4 T cells, culture supernatants from 3 replicate wells were combined and analyzed using the COBAS system.

[5] = system: latent HIV in resting CD4 T cells from HIV-infected patients on suppressive cART; type: cell-based; settings: for HIV RNA avg: Figure 4, 25 nM PNB, one value per donor; for persistence of intracellular HIV RNA induction: pulse RMD 4 hours, VOR 24 hours, PNB 24 hours, 6 to 48 hours
Method: (§1) To examine the kinetics of HIV induction, we analyzed cell-associated viral RNA levels at 6, 12, 24, and 48 hours after treatment initiation.
(§2) Lysates were filtered through a Qiashredder (Qiagen).

[6] = system: total class I and II HDAC enzyme activity in resting CD4 T cells; settings: pulse RMD 4 hours, VOR 24 hours, PNB 24 hours, 6 to 48 hours
Method: Resting CD4 T cells obtained from HIV-infected patients on suppressive cART were incubated with serial dilutions of HDACi in 96-well plates at 10,000 cells/well for indicated time and then lysed by repeated freezing and thawing. Total cellular HDAC activity was measured using the HDAC-Glo I/II assay kit (Promega) according to the manufacturer's protocol.

[7] = system: HIV; settings: cited from earlier work
[8] = system: latent HIV in memory CD4 T cells from HIV-infected patients on suppressive cART; assay: Ex vivo activation of HIV transcription, cell-associated HIV RNA, memory CD4 T cells; type: cell-based; settings: memory CD4 T cells, 1 µM VOR
Method: as §1, §2

[9] = system: latent HIV in resting CD4 T cells from HIV-infected patients on suppressive cART; assay: Ex vivo release of extracellular HIV RNA into culture supernatants, resting CD4 T cells; type: cell-based; settings: resting CD4 T cells
Method: as §3, §4, §5

[10] = system: HIV gag-pol RNA from resting CD4 T cells of a cART-suppressed patient; assay: Single-genome sequencing of HIV RNA in culture supernatants; type: cell-based; settings: 2 µM SAHA, day 7
Description: In parallel, we assessed the sequence diversity of HIV proviruses integrated in genomic DNA of resting CD4 T cells from the same culture.
Figure 8 Phylogenetic analysis of HIV sequences expressed ex vivo following the latency reversal. […] Single-genome sequencing was used to analyze patient HIV proviral DNA and plasma RNA at the initiation of treatment (day 0), together with the ex vivo induced HIV RNA in cell culture supernatants at the end of treatment (day 7). […] Identified HIV DNA and RNA sequences were aligned and the phylogenetic tree was constructed using Clustal W and MEAG5.
Single-genome sequencing of a portion of HIV-1 gag-pro-pol amplified from cell culture supernatants or cellular DNA extracts was performed as previously described [34]–[36]. Sequences were aligned using ClustalW and neighbor-joining phylogenetic analysis was performed using MEGA5. Trees were rooted on the subtype B consensus sequence (www.hiv.lanl.gov).

[11] = Cell culture medium protein binding by equilibrium dialysis, HPLC/mass spectrometry; type: in vitro ADME
[12] = system: latently infected cells expressing Bcl2; design: method as in PMID 22406268; settings: in vitro latency model with ectopic Bcl2; cited from earlier work
[13] = Human immunodeficiency virus 1, NL43, CD4+ T, 48 h

CCCCc1nc2cc(/C=C/C(=O)NO)ccc2n1CCN(CC)CC [SB939, pracinostat]
EC50 [1, 13]: 212 ± 14 nM
CC50 at 48 h [2]: > 50000 nM

CCN(CC)Cc1ccc2cc(COC(=O)Nc3ccc(C(=O)NO)cc3)ccc2c1 [Givinostat, givinostat]
EC50 [1, 13]: 95.8 ± 20.3 nM
CC50 at 48 h [2]: 24000 nM

Nc1ccccc1NC(=O)c1ccc(CNc2nccc(-c3cccnc3)n2)cc1 [Mocetinostat, mocetinostat]
EC50 [1, 13]: 13600 nM
CC50 at 48 h [2]: 10100 nM

CN(CC[C@H](N)CC(=O)N[C@H]1C=C[C@H](n2ccc(N)nc2=O)O[C@@H]1C(=O)O)C(=N)N [blasticidine]
cell death [3]: > 80%
release of HIV RNA into cell culture supernatants ([4]; highly cytotoxic control, data not shown): did not lead to release of detectable levels of HIV RNA

Cc1[nH]c2ccccc2c1CCNCc1ccc(/C=C/C(=O)NO)cc1 [PNB, panobinostat]
EC50 [1, 13]: 10 nM
EC50 [1]: 10.1 ± 1 nM
CC50 at 48 h [2]: > 2500 nM
HIV RNA avg ([5]; 6 hours): 4342 copies/mil cells and 2414 copies/mil cells
HIV RNA avg ([5]; 24 hours): 11600 copies/mil cells and 5606 copies/mil cells
HIV RNA avg ([5]; 48 hours): 1815 copies/mil cells and 783 copies/mil cells
persistence of intracellular HIV RNA induction ([5]; resting CD4 T cells): transient and diminished after 24 hours
persistence of inhibition of cell-associated HDAC activity [6]: transient and decreased after 24 hours of incubation
HIV transcription and viremia in peripheral blood ([7]; multiple doses of PNB, HIV-positive patients on suppressive cART): induce intracellular HIV transcription and low-level viremia

O=C(CCCCCCC(=O)Nc1ccccc1)NO [VOR, suberoylanilide hydroxamic acid]
CC50 at 48 h [2]: > 25000 nM
cell-associated HIV RNA at 48 hours [8]: decreased by 48 hours to levels detected in vehicle-treated cells
cell-associated HIV RNA at 48 hours ([5]; resting CD4 T cells, 1 µM VOR): decreased by 48 hours to levels detected in vehicle-treated cells
increase in intracellular HIV RNA levels versus vehicle ([5]; resting CD4 T cells, 1 µM VOR, 24-hour treatment): rapid, but transient and less-pronounced activation
persistence of intracellular HIV RNA induction ([5]; resting CD4 T cells): transient and diminished after 24 hours
extracellular HIV RNA versus untreated controls ([9]; 0.5 µM VOR continuous 6 days): did not increase extracellular HIV RNA significantly
patient-derived cultures with measurable increase of extracellular HIV RNA ([9]; 1 µM VOR continuous 6 days): 3 of 7
sequences of HIV RNA recovered in culture supernatants [10]: No HIV RNA sequences were recovered
fraction unbound [11]: 0.68
HIV RNA in culture supernatants ([4]; memory CD4 T cells, 1 µM VOR continuous 6 days, two patients): no significant increase
extracellular HIV RNA in culture supernatants ([4]; memory CD4 T cells, 0.5 and 1 µM VOR for 24 hours, day 6): lack of HIV RNA release
effect on total proviral DNA in peripheral CD4 T cells ([7]; multiple-dose (14-day) trial of VOR): no apparent effect
mean increase in cell-associated HIV RNA levels ([7]; once-daily VOR for 14 consecutive days, 20 patients): ~3 fold
mean increase in HIV RNA levels in resting CD4 T cells ([7]; single 400 mg dose of VOR, 8 HIV-infected patients on cART): 4.8 fold
increases in the level of plasma viremia ([7]; single-dose and 14-day VOR studies): not observed
cell death after HIV activation [12]: does not lead to cell death
